Results published in ChEMBL document CHEMBL1641539 (Bioorg Med Chem Lett, 2011).

How the values were obtained:
[1] = tested on: Epidermal growth factor receptor (Homo sapiens), P00533 [L858R]; assay: Inhibition of human EGFR L858R mutant at 10 uM after 60 mins by TR-FRET assay; format: protein assay; conditions: values are per cent of control
[2] = biological target: Interleukin-1 receptor-associated kinase 1 (Homo sapiens) (UniProt P51617); assay: Inhibition of human IRAK1 at 10 uM after 60 mins by TR-FRET assay; conditions: values are per cent of control
[3] = biological target: Tyrosine-protein kinase ITK/TSK (Homo sapiens) (UniProt Q08881); assay: Inhibition of human Itk at 10 uM after 60 mins by TR-FRET assay; conditions: values are per cent of control
[4] = biological target: Tyrosine-protein kinase JAK3 (Homo sapiens) (UniProt P52333); assay: Inhibition of human JAK3 at 10 uM after 60 mins by TR-FRET assay; conditions: values are per cent of control
[5] = biological target: MAP kinase-activated protein kinase 2 (Homo sapiens) (UniProt P49137); assay: Inhibition of human MAPKAP-K2 at 10 uM after 60 mins by TR-FRET assay; conditions: values are per cent of control
[6] = biological target: Ribosomal protein S6 kinase alpha-1 (Homo sapiens) (UniProt Q15418); assay: Inhibition of human Rsk1 at 10 uM after 60 mins by TR-FRET assay; conditions: values are per cent of control
[7] = tested on: Epidermal growth factor receptor (Homo sapiens), P00533 [L858R,T790M]; conditions: 10 uM
Description: Inhibition of human EGFR T790M, L858R mutant at 10 uM after 60 mins by TR-FRET assay

[8] = biological target: MAP kinase-activated protein kinase 5 (Homo sapiens) (UniProt Q8IW41); assay: Residual activity of human PRAK at 10 uM after 60 mins by TR-FRET assay
Sequence of MAP kinase-activated protein kinase 5 (Homo sapiens) (Q8IW41 whole entry): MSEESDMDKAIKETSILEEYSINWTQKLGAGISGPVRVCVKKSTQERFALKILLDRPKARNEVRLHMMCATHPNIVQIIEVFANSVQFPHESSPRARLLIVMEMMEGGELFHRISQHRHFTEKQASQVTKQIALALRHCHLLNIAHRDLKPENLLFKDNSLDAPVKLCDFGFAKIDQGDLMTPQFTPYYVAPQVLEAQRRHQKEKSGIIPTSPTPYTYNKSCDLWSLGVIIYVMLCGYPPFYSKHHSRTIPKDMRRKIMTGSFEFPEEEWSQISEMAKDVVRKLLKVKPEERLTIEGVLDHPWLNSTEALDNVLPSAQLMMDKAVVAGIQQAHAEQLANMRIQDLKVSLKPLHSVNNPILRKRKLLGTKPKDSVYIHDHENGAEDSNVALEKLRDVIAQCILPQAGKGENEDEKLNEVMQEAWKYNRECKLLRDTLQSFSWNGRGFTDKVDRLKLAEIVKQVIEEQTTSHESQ

[9] = biological target: Cyclin-dependent kinase 1/cyclin B (Homo sapiens) (UniProt P06493+P14635+Q8WWL7+O95067); assay: Residual activity of human CDK1/cyclinB at 10 uM after 60 mins by TR-FRET assay
[10] = biological target: Insulin receptor-related protein (Homo sapiens) (UniProt P14616); assay: Inhibition of human IRR at 10 uM after 60 mins by TR-FRET assay; values are per cent of control
Sequence of Insulin receptor-related protein (Homo sapiens) (P14616 27-742 limits assumed): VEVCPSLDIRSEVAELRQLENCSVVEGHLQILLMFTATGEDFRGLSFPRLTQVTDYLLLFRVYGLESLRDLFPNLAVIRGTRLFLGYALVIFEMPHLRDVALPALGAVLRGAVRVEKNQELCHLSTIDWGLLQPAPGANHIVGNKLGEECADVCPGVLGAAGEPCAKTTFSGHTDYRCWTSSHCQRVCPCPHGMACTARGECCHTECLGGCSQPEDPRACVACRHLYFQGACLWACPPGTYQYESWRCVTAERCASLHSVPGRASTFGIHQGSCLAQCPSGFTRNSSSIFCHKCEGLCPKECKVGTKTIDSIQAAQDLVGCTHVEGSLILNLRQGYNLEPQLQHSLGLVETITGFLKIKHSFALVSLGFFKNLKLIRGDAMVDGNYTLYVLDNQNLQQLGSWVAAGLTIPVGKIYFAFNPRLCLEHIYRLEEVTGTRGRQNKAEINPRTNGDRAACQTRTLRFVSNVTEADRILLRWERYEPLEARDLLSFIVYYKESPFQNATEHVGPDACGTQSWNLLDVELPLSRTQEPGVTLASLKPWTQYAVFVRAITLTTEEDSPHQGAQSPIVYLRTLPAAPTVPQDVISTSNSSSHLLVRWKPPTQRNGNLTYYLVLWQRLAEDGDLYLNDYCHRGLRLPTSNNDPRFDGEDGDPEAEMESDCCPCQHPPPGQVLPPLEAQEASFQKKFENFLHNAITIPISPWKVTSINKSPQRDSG
Sequence of Insulin receptor-related protein (Homo sapiens) (P14616 747-1297 limits assumed): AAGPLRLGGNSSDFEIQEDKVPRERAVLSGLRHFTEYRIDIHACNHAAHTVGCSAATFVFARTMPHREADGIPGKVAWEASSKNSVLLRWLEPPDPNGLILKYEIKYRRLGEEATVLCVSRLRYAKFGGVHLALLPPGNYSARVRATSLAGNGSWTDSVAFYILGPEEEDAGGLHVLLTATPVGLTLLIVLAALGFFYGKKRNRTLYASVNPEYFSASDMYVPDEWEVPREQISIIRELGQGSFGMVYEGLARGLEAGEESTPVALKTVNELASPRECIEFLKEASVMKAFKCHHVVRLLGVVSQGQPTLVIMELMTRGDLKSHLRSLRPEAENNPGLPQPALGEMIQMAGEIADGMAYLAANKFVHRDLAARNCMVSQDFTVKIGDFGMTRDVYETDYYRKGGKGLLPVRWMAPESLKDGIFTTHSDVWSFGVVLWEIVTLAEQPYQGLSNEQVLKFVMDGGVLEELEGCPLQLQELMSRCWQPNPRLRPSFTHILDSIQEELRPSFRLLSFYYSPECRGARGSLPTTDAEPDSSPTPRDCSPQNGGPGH

Saccharomyces cerevisiae = assay: Inhibition of yeast CK1 at 10 uM after 60 mins by TR-FRET assay; values are per cent of control
[11] = biological target: G protein-coupled receptor kinase 6 (Homo sapiens) (UniProt P43250); assay: Inhibition of human GRK6 at 10 uM after 60 mins by TR-FRET assay; values are per cent of control
Sequence of G protein-coupled receptor kinase 6 (Homo sapiens) (P43250 whole entry, looked up): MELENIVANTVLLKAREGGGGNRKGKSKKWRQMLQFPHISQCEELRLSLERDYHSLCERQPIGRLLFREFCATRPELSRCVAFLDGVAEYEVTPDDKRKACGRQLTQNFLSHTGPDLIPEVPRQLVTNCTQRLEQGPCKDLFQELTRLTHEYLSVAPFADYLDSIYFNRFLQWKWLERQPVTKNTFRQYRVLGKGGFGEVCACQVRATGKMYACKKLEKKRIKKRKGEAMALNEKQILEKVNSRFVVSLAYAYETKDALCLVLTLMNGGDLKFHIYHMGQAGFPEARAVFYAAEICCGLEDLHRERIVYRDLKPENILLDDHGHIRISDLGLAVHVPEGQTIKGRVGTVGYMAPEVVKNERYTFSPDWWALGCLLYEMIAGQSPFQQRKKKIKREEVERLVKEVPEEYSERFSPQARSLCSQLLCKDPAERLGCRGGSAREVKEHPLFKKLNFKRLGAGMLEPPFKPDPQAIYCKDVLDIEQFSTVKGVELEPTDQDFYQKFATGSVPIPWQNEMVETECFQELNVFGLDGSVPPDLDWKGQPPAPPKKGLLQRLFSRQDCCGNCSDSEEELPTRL

[12] = biological target: Dual specificity mitogen-activated protein kinase kinase 1 (Homo sapiens) (UniProt Q02750); assay: Inhibition of human MEK1 at 10 uM after 60 mins by TR-FRET assay; values are per cent of control
[13] = biological target: Serine/threonine-protein kinase Sgk3 (Homo sapiens) (UniProt Q96BR1); assay: Inhibition of human SGK3 at 10 uM after 60 mins by TR-FRET assay; values are per cent of control
[14] = biological target: Casein kinase I isoform delta (Homo sapiens) (UniProt P48730); assay: Inhibition of human CK1d at 10 uM after 60 mins by TR-FRET assay; values are per cent of control
Sequence of Casein kinase I isoform delta (Homo sapiens) (P48730 whole entry, looked up, canonical isoform): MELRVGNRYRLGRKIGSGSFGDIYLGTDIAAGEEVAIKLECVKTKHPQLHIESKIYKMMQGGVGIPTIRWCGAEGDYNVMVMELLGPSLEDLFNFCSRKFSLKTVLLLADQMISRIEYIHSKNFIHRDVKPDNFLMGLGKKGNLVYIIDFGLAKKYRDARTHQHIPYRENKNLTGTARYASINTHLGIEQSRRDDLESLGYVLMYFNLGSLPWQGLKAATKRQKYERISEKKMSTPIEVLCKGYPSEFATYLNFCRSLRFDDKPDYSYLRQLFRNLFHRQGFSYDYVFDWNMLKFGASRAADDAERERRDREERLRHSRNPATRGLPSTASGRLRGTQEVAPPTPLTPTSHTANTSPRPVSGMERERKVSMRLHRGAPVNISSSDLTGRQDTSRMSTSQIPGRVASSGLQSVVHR

[15] = biological target: Dual specificity protein kinase CLK3 (Homo sapiens) (UniProt P49761); assay: Inhibition of human CLK3 at 10 uM after 60 mins by TR-FRET assay; values are per cent of control
[16] = biological target: Serine/threonine-protein kinase PAK 5 (Homo sapiens) (UniProt Q9P286); assay: Inhibition of human PAK5 at 10 uM after 60 mins by TR-FRET assay; values are per cent of control
[17] = biological target: Serine/threonine-protein kinase PAK 6 (Homo sapiens) (UniProt Q9NQU5); assay: Inhibition of human PAK6 at 10 uM after 60 mins by TR-FRET assay; values are per cent of control
Sequence of Serine/threonine-protein kinase PAK 6 (Homo sapiens) (Q9NQU5 whole entry, looked up): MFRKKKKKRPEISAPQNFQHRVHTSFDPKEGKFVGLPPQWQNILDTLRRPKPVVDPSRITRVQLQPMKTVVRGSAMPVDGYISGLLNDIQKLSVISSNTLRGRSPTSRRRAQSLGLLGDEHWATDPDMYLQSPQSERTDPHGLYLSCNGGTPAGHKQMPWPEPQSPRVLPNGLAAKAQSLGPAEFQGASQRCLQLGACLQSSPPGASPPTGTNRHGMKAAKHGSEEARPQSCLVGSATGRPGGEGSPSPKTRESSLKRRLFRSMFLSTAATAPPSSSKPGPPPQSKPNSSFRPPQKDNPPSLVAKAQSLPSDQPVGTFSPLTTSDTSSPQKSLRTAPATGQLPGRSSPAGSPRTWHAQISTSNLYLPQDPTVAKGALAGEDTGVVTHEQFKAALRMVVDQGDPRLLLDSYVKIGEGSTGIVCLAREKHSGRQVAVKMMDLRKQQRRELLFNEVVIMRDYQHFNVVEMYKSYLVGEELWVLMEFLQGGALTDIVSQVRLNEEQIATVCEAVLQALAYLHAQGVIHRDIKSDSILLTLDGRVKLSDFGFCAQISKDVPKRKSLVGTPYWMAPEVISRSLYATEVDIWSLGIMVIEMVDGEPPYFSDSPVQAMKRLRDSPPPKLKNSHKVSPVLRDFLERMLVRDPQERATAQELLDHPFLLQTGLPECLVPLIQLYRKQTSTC

[18] = biological target: Ephrin type-A receptor 4 (Homo sapiens) (UniProt P54764); assay: Inhibition of human EphA4 at 10 uM after 60 mins by TR-FRET assay; values are per cent of control
[19] = biological target: LIM domain kinase 1 (Homo sapiens) (UniProt P53667); assay: Inhibition of human LIMK1 at 10 uM after 60 mins by TR-FRET assay; values are per cent of control
[20] = biological target: Testis-specific serine/threonine-protein kinase 2 (Homo sapiens) (UniProt Q96PF2); assay: Inhibition of human TSSK2 at 10 uM after 60 mins by TR-FRET assay; values are per cent of control
Sequence of Testis-specific serine/threonine-protein kinase 2 (Homo sapiens) (Q96PF2 whole entry): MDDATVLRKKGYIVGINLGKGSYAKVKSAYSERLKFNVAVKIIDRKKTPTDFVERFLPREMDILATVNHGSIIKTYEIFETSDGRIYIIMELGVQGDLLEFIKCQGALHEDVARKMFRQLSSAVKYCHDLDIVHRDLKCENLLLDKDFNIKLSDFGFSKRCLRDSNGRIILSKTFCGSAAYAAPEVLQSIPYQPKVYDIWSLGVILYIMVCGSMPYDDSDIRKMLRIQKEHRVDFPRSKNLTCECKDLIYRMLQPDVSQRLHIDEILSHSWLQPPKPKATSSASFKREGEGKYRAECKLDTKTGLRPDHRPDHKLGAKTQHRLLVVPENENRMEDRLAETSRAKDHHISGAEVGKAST

[21] = biological target: RAC-beta serine/threonine-protein kinase (Homo sapiens) (UniProt P31751); assay: Inhibition of human PKBbeta at 10 uM after 60 mins by TR-FRET assay; values are per cent of control
Sequence of RAC-beta serine/threonine-protein kinase (Homo sapiens) (P31751 whole entry): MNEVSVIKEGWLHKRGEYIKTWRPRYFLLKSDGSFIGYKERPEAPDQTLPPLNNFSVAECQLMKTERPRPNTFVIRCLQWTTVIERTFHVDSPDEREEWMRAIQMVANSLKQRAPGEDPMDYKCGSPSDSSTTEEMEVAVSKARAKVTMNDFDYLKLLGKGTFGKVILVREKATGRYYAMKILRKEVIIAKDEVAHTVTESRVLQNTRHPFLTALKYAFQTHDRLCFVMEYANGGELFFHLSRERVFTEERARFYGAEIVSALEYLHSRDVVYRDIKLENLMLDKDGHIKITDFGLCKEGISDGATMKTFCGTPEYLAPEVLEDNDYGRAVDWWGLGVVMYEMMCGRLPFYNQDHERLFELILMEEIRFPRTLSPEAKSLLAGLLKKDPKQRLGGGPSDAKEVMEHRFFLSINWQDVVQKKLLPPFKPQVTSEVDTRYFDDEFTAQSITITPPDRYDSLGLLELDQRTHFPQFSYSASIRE

[22] = biological target: Cyclin-dependent kinase 5/CDK5 activator 1 (Homo sapiens) (UniProt Q00535+Q15078); assay: Inhibition of human CDK5/p35 at 10 uM after 60 mins by TR-FRET assay; values are per cent of control
[23] = biological target: RAC-alpha serine/threonine-protein kinase (Homo sapiens) (UniProt P31749); assay: Inhibition of human PKBalpha at 10 uM after 60 mins by TR-FRET assay; values are per cent of control
Sequence of RAC-alpha serine/threonine-protein kinase (Homo sapiens) (P31749 whole entry): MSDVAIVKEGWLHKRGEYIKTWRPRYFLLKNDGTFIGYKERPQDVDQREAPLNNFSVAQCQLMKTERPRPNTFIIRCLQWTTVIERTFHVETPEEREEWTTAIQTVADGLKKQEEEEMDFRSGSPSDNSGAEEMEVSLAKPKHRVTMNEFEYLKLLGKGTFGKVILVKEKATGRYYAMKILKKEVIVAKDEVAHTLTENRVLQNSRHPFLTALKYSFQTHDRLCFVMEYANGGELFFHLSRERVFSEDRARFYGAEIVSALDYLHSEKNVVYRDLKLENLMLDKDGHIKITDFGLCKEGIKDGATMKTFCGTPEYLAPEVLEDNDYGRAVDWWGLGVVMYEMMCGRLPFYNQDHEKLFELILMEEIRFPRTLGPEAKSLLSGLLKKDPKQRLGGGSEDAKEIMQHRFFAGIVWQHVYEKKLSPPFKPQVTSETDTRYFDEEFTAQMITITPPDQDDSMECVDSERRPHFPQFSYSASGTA

[24] = biological target: Calcium/calmodulin-dependent protein kinase type II subunit beta (Homo sapiens) (UniProt Q13554); assay: Inhibition of human CaMK2beta at 10 uM after 60 mins by TR-FRET assay; values are per cent of control
[25] = biological target: Cyclin-dependent kinase 2/cyclin A (Homo sapiens) (UniProt P24941+P20248+P78396); assay: Inhibition of human CDK2/cyclinA at 10 uM after 60 mins by TR-FRET assay; values are per cent of control
[26] = tested on: Tyrosine-protein kinase ABL1 (Homo sapiens), P00519 [Q252H]; assay: Inhibition of human Abl Q252H mutant at 10 uM after 60 mins by TR-FRET assay; values are per cent of control
[27] = tested on: Angiopoietin-1 receptor (Homo sapiens), Q02763 [R849W]; assay: Inhibition of human Tie2 R849W mutant at 10 uM after 60 mins by TR-FRET assay; values are per cent of control
[28] = tested on: Angiopoietin-1 receptor (Homo sapiens), Q02763 [Y897S]; assay: Inhibition of human Tie2 Y897S mutant at 10 uM after 60 mins by TR-FRET assay; values are per cent of control

residual activity [1]: 75%
residual activity [2]: 113%
residual activity [3]: 103%
residual activity [4]: 147%
residual activity [5]: 106%
residual activity [6]: 105%
inhibition [7]: 88%
residual activity [8]: 119%
residual activity [9]: 101%
residual activity [10]: 111%
residual activity (Saccharomyces cerevisiae): 90%
residual activity [11]: 108%
residual activity [12]: 110%
residual activity [13]: 102%
residual activity [14]: 96%
residual activity [15]: 96%
residual activity [16]: 101%
residual activity [17]: 103%
residual activity [18]: 127%
residual activity [19]: 101%
residual activity [20]: 107%
residual activity [21]: 110%
residual activity [22]: 96%
residual activity [23]: 99%
residual activity [24]: 113%
residual activity [25]: 114%
residual activity [26]: 111%
residual activity [27]: 94%
residual activity [28]: 92%
SMILES: S=c1[nH]nc(-c2ccncc2)n1-c1ccc2ccccc2c1
